Experimental data taken from US20150190523A1, “BIOAVAILABILITY OF ORAL METHYLNALTREXONE INCREASES WITH A PHOSPHATIDYLCHOLINE-BASED FORMULATION” (The University of Chicago, priority 2012, published 2015).

Legend:
[1] = white crystalline powder, typically bromide salt, commercially provided; cited from earlier work
[2] = Pharmacokinetics of MNTX in rat plasma after oral gavage (LC/MS/MS); settings: male, Sprague-Dawley, in vivo, 250 mg/kg; for AUC(0-t) / Cmax / Tmax: rats, 250 mg/kg oral
Experimental: Animals, MNTX Administration, and Blood Collection.
The experimental protocol was approved by the Institutional Animal Care and Use Committee. Male Sprague-Dawley rats (190-200 g) were obtained from Luye Pharma (Yantai, China) (Wang et al., 2010). Rats were allowed to acclimatize in environmentally controlled quarters (24±2° C. and a 12:12 h light-dark cycle). The rats were fasted for 12 h prior to the experiments.
Ten rats received test compounds via oral gavage. […] Venous blood samples were drawn from the ocular venous plexus at 0, 10, 20, 30, 45, 60, 90, 120, 150, 180, 240, 300, 420 and 540 min. The samples were placed into heparinized tubes and centrifuged at 1500×g for 5 min. The plasma samples were immediately stored in a freezer (−20° C.) for the pending assay.
Plasma Sample Processing.
A […] plasma sample was transferred to a 1.5 mL microcentrifuge tube. Then 0.2 mL of acetonitrile and […] of ketamine hydrochloride (I.S.) were mixed with the plasma sample and vortexed for 5 min before being centrifuged at 1500×g for 5 min. The supernatant was transferred to another tube and dried under a gentle flow of nitrogen. The residue was dissolved in […] of mobile phase, and then centrifuge at 15,000×g for 10 min. Lastly, 5 μL of supernatant was injected into the LC/MS/MS system for analysis.
Determination of MNTX Concentration by LC/MS/MS.
The concentrations of MNTX in rat plasma samples were determined with LC/MS/MS. MNTX plasma levels and the internal standard determined by LC/MS/MS were tested at the time points listed above. The assay was performed using an HPLC system with an Agilent 1100 pump, an Agilent 1100 auto sampler, and a Hanbang C18 column (150 mm×2.1 mm, 5 μm) with a guard column (Wang et al., 2011). For the mobile phase, methanol/water (60/40, containing 0.1% of acetic acid) was pumped at a flow rate of 0.2 mL/min. The samples were stored at 4° C. in the auto sampler before 5 μL was injected into the column. The detector was an API 4000 triple quadruple mass (MS) spectrometer (Applied Biosystems, Foster City, Calif.), and Analyst™ software version 4.1 was used for MS control and spectral processing. Using electrospray ionization (ESI) in positive ion mode, the MS parameters were optimized as follows: heater temperature, 350° C.; ion source voltage, 4000V. Multiple reaction monitoring was used, and the selected single charged precursor-production ion pairs were m/z 356.08→226.95 for MNTX and m/z 237.93→125.05 for ketamine hydrochloride.
Data analysis. Pharmacokinetic data were analyzed by software (Kinetic 4.4; Thermo Electron Co., Waltham. Mass.). All data were expressed as the mean±standard error (S.E.). A one-way ANOVA determined whether the results had statistical significance. The level of statistical significance was set at P<0.05.

SMILES: C[N+]1(CC2CC2)CCC23c4c5ccc(O)c4OC2C(=O)CCC3(O)C1C5 (centres unmarked) [MNTX, methylnaltrexone bromide]
- solubility in water [1]: freely soluble in water
- AUC [2]: 1060 ng·h/mL
- half-life [2]: 4.32 h
- AUC(0-t) ([2]; AUC0-540 min, 0 to 540 min, mean±S.E.): 1410 ± 448 ng·h/mL
- AUC(0-t) ([2]; First peak AUC0-150 min, 0 to 150 min, n=5, mean): 341 ± 94.5 ng·h/mL
- Cmax ([2]; First peak Cmax, first plasma peak, n=5, mean): 276 ± 102 ng/mL
- Tmax ([2]; First peak Tmax, first plasma peak): 2 h
- Cmax ([2]; Second peak Cmax, second plasma peak, n=5, mean): 448 ± 126 ng/mL
- Tmax ([2]; Second peak Tmax, second plasma peak): 3 h
- Cmax ([2]; peak plasma concentration (Cmax), overall profile, mean±S.E.): 448 ± 126 ng/mL
- Tmax ([2]; time to peak plasma concentration (Tmax), overall profile): 3 h
